In ChEMBL document CHEMBL1140018, “Synthesis and structure-activity relationship of imidazo(1,2-a)thieno(3,2-e)pyrazines as IKK-beta inhibitors” (Bioorg Med Chem Lett, 2007):
Values after ≈ are worked out from the molar mass of the structure shown. Active and inactive are the calls of the source. The calls are words filed in the database; no cut-off is given here.

Key:
[1] = biological target: T1, Inhibitor of nuclear factor kappa-B kinase subunit alpha (Homo sapiens, UniProt O15111)
T1 sequence (O15111 whole entry): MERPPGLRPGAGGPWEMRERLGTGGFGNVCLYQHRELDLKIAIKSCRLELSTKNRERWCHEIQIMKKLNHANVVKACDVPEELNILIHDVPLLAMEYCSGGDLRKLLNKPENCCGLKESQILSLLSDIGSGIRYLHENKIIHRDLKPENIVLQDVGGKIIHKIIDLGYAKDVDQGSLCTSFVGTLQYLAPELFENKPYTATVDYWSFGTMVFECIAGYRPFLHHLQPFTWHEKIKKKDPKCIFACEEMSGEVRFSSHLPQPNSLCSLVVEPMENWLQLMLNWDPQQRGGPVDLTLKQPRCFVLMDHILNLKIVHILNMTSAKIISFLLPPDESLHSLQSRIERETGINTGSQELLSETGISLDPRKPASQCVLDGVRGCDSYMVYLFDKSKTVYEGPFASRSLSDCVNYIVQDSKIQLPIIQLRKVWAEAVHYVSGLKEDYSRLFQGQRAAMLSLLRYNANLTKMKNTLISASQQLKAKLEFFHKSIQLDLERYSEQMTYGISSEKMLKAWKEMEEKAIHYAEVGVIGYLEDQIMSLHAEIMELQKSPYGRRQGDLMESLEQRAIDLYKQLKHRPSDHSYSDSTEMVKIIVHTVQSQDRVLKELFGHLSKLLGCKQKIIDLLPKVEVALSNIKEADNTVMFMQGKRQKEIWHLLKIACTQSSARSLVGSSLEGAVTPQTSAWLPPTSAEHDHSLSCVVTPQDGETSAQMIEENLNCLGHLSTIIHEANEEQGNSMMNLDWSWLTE

[2] = biological target: T2, Inhibitor of nuclear factor kappa-B kinase subunit beta (Homo sapiens, UniProt O14920)
T2 sequence (O14920 whole entry): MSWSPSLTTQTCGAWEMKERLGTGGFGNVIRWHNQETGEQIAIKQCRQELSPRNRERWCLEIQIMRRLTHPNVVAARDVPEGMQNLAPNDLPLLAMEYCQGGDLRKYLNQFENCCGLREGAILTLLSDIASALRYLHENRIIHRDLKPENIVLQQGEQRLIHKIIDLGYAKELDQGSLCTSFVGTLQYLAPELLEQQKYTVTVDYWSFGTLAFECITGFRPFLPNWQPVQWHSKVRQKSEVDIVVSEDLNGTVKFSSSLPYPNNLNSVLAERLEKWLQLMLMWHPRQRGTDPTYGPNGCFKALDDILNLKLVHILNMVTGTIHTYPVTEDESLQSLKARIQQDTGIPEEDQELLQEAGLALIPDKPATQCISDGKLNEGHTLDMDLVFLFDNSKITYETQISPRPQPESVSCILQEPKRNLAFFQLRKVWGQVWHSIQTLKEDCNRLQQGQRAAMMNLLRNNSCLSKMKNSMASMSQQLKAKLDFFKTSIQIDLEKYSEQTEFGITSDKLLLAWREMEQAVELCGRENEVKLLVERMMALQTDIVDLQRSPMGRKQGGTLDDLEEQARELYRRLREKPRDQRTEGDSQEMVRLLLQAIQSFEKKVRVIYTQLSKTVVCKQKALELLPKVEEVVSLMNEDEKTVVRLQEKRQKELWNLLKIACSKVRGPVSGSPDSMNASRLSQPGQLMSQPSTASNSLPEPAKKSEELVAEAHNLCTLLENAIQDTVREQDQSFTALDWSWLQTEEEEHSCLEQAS

[3] = Cytotoxicity against Jurkat cells by Alamar blue assay; details: human, Jurkat cells
[4] = biological target: T3, Inhibitor of nuclear factor kappa-B kinase subunit epsilon (Homo sapiens) (UniProt Q14164); experiment: Inhibition of IKKepsilon
T3 sequence (whole entry): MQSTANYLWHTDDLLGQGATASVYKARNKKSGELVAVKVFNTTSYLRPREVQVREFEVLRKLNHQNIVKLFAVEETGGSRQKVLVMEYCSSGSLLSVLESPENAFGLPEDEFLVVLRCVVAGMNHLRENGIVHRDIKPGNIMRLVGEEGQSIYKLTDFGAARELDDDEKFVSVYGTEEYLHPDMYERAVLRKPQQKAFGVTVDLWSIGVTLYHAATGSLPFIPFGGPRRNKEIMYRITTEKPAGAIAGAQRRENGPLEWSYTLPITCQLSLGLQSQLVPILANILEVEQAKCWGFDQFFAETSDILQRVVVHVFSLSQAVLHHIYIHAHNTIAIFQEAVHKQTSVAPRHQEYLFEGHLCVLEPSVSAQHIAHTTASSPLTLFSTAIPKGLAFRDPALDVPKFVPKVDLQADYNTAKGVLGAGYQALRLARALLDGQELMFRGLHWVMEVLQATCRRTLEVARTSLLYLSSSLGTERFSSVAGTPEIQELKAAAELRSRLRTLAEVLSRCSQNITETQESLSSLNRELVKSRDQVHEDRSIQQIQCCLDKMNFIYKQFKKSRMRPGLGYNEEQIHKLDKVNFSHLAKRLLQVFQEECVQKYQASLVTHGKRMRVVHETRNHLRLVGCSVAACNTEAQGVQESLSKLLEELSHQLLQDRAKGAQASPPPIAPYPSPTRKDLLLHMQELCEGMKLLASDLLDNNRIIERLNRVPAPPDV

[5] = biological target: MAP kinase p38 (Homo sapiens) (UniProt O15264+Q15759+Q16539+P53778); experiment: Inhibition of p38; type: protein assay
[6] = biological target: Epidermal growth factor receptor (Homo sapiens) (UniProt P00533); experiment: Inhibition of Her1
[7] = biological target: Receptor tyrosine-protein kinase erbB-2 (Homo sapiens) (UniProt P04626); experiment: Inhibition of Her2
[8] = biological target: Tyrosine-protein kinase Lck (Homo sapiens) (UniProt P06239); experiment: Inhibition of LCK
[9] = biological target: T4, Tyrosine-protein kinase ITK/TSK (Homo sapiens) (UniProt Q08881); experiment: Inhibition of EMT
T4 sequence (whole entry): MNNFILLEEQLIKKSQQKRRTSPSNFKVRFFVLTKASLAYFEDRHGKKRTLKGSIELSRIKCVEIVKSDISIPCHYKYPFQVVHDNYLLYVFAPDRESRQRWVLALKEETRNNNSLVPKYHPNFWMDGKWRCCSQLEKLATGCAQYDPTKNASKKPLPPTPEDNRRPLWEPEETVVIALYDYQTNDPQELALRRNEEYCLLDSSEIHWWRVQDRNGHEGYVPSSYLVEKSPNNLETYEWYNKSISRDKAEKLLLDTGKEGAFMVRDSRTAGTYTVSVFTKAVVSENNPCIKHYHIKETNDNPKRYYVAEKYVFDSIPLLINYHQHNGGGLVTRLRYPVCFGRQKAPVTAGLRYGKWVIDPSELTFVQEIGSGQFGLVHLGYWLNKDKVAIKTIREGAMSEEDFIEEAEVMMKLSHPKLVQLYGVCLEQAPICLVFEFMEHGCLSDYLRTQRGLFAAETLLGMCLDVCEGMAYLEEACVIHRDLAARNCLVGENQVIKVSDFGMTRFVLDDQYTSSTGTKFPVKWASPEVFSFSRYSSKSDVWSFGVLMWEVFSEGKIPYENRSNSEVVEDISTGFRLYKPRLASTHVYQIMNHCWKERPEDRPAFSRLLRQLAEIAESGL

[10] = species on record: Homo sapiens; experiment: Inhibition of VEGF
[11] = biological target: Insulin-like growth factor 1 receptor (Homo sapiens) (UniProt P08069); experiment: Inhibition of IGF1R
[12] = species on record: Homo sapiens; experiment: Inhibition of PKA
[13] = tested on: Jurkat; experiment: Inhibition of TNF-alpha-induced response in Jurkat cells; details: Homo sapiens
[14] = Aqueous solubility in sodium phosphate buffer at pH 6.5; type: physicochemical
[15] = tested on: Liver microsomes; experiment: Metabolic stability in human liver microsomes; type: ADME, Microsome
[16] = tested on: Liver; experiment: Metabolic stability in mouse liver microsomes; type: ADME, Microsome
[17] = Cmax in mouse at 10 mg/kg, po; type: ADME, organism-based; parameters: dose 10 mg/kg, route oral; details: in vivo
[18] = AUC(1 to 4 hrs) in mouse at 10 mg/kg, po; type: ADME, organism-based; parameters: time upper 4 hr, time lower 1 hr, dose 10 mg/kg, route oral; details: plasma
[19] = tested on: PBMC; experiment: Inhibition of LPS-induced TNFalpha production in PBMC; type: functional, cell-based; details: Homo sapiens
[20] = tested on: Mus musculus; experiment: Reduction of LPS-induced TNFalpha release in mouse at 30 mg/kg administered 1 hr before LPS challenge; type: functional; parameters: scale not given: the % may be the effect or the level left
[21] = Drug level in LPS-challenged mouse serum at 30 mg/kg after 2.5 hrs; type: ADME, organism-based; parameters: dose 30 mg/kg; details: read-out: Activity
[22] = tested on: Mus musculus; experiment: Reduction of LPS-induced TNFalpha release in mouse at 30 mg/kg administered 4 hrs before LPS challenge; type: functional
[23] = Drug level in LPS-challenged mouse serum at 30 mg/kg after 5.5 hrs; type: ADME, organism-based; parameters: dose 30 mg/kg; details: read-out: Activity
[24] = Tmax in mouse at 10 mg/kg, po; type: ADME, organism-based; parameters: dose 10 mg/kg, route oral; details: in vivo

Insulin-like growth factor 1 receptor (Homo sapiens), sequence (P08069 31-736 limits assumed): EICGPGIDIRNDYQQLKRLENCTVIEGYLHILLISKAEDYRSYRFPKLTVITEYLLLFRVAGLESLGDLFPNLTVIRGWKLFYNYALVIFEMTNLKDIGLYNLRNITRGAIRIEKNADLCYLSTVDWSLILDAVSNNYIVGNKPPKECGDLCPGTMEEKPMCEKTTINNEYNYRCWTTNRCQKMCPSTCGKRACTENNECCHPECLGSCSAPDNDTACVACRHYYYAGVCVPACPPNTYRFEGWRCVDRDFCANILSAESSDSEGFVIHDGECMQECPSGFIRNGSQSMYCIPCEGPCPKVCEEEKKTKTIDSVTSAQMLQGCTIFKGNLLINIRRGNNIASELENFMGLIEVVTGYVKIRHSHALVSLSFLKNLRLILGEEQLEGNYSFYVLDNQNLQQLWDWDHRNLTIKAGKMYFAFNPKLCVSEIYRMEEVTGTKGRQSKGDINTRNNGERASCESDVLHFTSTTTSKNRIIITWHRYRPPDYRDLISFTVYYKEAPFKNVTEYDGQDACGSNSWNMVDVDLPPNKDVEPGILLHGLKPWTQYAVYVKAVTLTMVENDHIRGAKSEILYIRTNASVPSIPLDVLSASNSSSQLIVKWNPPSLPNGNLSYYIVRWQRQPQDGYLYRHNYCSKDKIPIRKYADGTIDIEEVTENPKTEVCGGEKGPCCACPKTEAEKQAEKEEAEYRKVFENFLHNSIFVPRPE
Insulin-like growth factor 1 receptor (Homo sapiens), sequence (P08069 741-1367 limits assumed): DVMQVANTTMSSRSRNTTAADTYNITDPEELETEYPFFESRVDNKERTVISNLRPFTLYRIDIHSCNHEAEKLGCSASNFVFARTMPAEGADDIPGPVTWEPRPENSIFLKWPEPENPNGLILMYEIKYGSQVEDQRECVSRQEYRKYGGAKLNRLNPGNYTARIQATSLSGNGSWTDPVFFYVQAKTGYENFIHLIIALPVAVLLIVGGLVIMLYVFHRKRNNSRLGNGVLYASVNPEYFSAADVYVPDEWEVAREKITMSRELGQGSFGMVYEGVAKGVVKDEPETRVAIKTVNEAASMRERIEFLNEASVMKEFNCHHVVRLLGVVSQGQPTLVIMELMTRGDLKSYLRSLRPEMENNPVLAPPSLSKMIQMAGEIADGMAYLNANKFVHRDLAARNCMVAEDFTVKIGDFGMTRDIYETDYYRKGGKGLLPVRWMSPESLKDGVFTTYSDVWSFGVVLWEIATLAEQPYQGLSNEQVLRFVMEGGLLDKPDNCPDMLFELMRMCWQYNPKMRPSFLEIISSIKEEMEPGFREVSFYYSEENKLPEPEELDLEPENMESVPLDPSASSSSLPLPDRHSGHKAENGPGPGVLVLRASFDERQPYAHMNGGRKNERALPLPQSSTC
Epidermal growth factor receptor (Homo sapiens), sequence (P00533 whole entry): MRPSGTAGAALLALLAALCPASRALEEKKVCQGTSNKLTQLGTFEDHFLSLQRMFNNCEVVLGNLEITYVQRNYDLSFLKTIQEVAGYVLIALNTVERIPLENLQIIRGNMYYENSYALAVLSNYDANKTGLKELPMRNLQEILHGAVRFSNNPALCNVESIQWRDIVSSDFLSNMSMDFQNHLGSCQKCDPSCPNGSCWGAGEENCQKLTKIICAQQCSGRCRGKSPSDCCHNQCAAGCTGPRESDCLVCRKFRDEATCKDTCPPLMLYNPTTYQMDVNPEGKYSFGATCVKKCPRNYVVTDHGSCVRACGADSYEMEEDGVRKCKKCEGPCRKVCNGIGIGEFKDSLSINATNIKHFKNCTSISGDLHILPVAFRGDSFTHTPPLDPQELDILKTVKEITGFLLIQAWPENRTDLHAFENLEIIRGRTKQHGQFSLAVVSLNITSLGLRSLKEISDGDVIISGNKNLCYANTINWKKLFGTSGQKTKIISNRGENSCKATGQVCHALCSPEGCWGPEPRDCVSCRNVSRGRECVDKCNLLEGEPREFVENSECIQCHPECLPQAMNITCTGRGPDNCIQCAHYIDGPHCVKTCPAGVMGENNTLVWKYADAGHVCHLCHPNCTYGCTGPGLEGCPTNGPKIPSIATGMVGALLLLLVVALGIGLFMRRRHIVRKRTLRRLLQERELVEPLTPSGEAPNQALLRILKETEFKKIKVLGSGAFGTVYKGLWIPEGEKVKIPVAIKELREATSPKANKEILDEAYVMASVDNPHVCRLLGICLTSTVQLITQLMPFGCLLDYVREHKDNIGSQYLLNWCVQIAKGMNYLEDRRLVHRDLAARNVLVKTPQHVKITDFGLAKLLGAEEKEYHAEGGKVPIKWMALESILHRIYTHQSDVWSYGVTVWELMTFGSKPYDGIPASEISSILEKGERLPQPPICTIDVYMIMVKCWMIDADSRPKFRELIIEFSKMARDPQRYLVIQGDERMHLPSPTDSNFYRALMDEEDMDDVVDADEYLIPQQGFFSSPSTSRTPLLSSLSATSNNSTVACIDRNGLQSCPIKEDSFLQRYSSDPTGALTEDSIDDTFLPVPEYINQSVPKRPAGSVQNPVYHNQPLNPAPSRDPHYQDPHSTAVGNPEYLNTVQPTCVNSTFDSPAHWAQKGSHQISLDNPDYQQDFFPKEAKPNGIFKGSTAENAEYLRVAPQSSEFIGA
Tyrosine-protein kinase Lck (Homo sapiens), sequence (P06239 2-509 limits assumed): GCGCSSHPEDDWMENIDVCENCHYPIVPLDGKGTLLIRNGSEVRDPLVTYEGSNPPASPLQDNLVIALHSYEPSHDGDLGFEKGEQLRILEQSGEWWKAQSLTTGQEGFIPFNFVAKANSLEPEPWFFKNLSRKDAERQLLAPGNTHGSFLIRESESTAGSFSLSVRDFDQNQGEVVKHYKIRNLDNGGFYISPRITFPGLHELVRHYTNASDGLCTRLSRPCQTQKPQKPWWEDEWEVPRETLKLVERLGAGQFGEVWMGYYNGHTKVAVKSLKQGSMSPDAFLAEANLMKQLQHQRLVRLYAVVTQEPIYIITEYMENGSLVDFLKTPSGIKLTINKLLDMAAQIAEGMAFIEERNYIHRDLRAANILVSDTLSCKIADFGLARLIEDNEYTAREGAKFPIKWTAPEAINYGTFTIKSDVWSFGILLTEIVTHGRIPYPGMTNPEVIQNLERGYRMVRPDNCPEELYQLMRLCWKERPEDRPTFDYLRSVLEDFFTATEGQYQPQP
Receptor tyrosine-protein kinase erbB-2 (Homo sapiens), sequence (P04626 whole entry): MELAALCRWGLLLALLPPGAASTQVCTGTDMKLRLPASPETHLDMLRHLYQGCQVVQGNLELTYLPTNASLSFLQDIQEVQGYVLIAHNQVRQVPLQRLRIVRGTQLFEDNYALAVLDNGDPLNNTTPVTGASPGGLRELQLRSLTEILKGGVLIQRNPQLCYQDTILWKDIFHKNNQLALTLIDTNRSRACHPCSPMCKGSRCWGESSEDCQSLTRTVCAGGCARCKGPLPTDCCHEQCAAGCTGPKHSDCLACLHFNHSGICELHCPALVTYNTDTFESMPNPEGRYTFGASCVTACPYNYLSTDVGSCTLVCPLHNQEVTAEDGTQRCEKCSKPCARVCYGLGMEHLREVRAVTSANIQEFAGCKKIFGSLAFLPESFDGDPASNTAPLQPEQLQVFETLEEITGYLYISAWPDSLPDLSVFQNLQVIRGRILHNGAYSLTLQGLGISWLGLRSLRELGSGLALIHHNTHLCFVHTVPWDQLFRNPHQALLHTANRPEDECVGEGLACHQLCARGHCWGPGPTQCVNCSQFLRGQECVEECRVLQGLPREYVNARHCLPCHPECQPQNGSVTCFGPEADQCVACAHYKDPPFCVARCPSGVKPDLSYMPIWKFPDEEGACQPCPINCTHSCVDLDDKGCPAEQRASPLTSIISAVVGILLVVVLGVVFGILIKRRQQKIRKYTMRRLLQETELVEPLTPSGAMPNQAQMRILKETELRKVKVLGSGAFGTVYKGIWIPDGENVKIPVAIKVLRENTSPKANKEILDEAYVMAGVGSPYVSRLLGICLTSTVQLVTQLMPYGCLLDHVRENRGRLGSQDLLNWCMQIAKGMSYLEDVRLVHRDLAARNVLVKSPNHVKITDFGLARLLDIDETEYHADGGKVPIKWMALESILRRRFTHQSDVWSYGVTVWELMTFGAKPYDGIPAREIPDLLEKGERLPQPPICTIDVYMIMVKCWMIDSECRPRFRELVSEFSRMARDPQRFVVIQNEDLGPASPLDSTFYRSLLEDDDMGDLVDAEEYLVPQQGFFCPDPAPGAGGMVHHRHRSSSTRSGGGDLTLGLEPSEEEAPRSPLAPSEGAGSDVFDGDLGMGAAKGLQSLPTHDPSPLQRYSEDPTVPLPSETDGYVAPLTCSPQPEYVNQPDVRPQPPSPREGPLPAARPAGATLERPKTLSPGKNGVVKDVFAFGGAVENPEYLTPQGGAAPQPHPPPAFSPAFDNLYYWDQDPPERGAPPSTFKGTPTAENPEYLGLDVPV

Cc1cnc2c(NCCN)nc3cc(-c4ccccc4)sc3n12
IC50 [1]: 910 nM
IC50 [2]: 22 nM
CC50 [3]: 77 µM
Activity [4]: inactive
Activity [5]: inactive
Activity [6]: inactive
Activity [7]: inactive
Activity [8]: inactive
Activity [9]: inactive
Activity [10]: inactive
Activity [11]: inactive
Activity [12]: inactive
EC50 [13]: > 100000 nM

CNC(=O)C(N)Cc1cccc(-c2cc3nc(NC)c4ncc(C)n4c3s2)c1 (racemic)
IC50 [1]: 330 nM
IC50 [2]: 36 nM
CC50 [3]: 68 µM
solubility [14]: 42 µg/mL (≈ 106 µM)
EC50 [13]: 470 nM

CNc1nc2cc(-c3cccc(CCNCC(N)=O)c3)sc2n2c(C)cnc12
IC50 [1]: 390 nM
IC50 [2]: 13 nM
CC50 [3]: > 100 µM
Stability [15]: 0.017 nmol/mg/min
Stability [16]: 0.07 nmol/mg/min
Cmax [17]: 5.2 µM
AUC(0-t) [18]: 9.6 µM·h
EC50 [19]: 1370 nM
Activity [20]: 49%
concentration at 2.5 h [21]: 14.3 µM
Activity [22]: inactive
concentration at 5.5 h [23]: 2.1 µM
Tmax [24]: 60 min
EC50 [13]: 1810 nM

CNc1nc2cc(-c3ccccc3)sc2n2c(C)cnc12
IC50 [1]: 1090 nM
IC50 [2]: 27 nM
CC50 [3]: > 100 µM
solubility [14]: < 1 µg/mL
Activity [4]: inactive
Activity [5]: inactive
Activity [6]: inactive
Activity [7]: inactive
Activity [8]: inactive
Activity [9]: inactive
Activity [10]: inactive
Activity [11]: inactive
Activity [12]: inactive
EC50 [13]: 1350 nM

Cc1ccc2nc(NCCN)c3ncc(C)n3c2c1 [BMS-345541]
CC50 [3]: 100 µM
Stability [15]: < 0.01 nmol/mg/min
Stability [16]: 0.016 nmol/mg/min
Cmax [17]: 1.4 µM
AUC(0-t) [18]: 3.8 µM·h
EC50 [19]: 800 nM
Activity [20]: 82%
concentration at 2.5 h [21]: 7.6 µM
Activity [22]: 70%
concentration at 5.5 h [23]: 4.2 µM
Tmax [24]: 30 min
EC50 [13]: 13300 nM

Cc1cnc2c(NCCN3CCCCC3)nc3cc(-c4ccccc4)sc3n12
IC50 [1]: 3130 nM
IC50 [2]: 40 nM
CC50 [3]: 15 µM
Activity [4]: inactive
Activity [5]: inactive
Activity [6]: inactive
Activity [7]: inactive
Activity [8]: inactive
Activity [9]: inactive
Activity [10]: inactive
Activity [11]: inactive
Activity [12]: inactive
EC50 [13]: 13400 nM

CCNC(=O)C(N)Cc1cccc(-c2cc3nc(NC)c4ncc(C)n4c3s2)c1 (racemic)
IC50 [1]: 1010 nM
IC50 [2]: 590 nM
CC50 [3]: 71 µM
solubility [14]: 44 µg/mL (≈ 108 µM)
Stability [15]: 0.069 nmol/mg/min
Stability [16]: 0.145 nmol/mg/min
Cmax [17]: 8.6 µM
AUC(0-t) [18]: 9.89 µM·h
EC50 [19]: 140 nM
Tmax [24]: 30 min
EC50 [13]: 1050 nM
